# Experimental data from US8603527B2, “Pharmaceutical formulations of a substituted diaminopurine” (Signal Pharmaceuticals, LLC, priority 2010, dated 2013).
# Like-named read-outs stand apart in the source and are kept apart here.
# Key:
# [1] = Oral developmental toxicity study in the rat; type: in vivo; settings: female, CD [Crl:CD(SD)], rat, in vivo, oral; rats; read-out: NOAEL for maternal toxicity
# Protocol: (§1) Compound I was administered orally to four groups of 25 time-mated female CD®[Crl:CD®(SD)] rats/group at dose levels of 0 (vehicle, 1.0% carboxymethylcellulose/0.25% TWEEN® 80), 25, 50, or 100 mg/kg/day from Gestation Days (GD) 6 to 17. In addition, four groups of five time-mated females/group served as toxicokinetic (TK) animals and received the vehicle or test article in the same manner as the main study groups.
# [2] = test system: time-mated female CD [Crl:CD(SD)] rats; assay: Oral developmental toxicity study in the rat; type: in vivo
# Protocol: as §1
# [3] = Toxicokinetics in pregnant female rabbits; type: in vivo, rabbit; settings: for Kp / AUC / Cmax: female, New Zealand White Hra:(NZW)SPF, rabbit; for Kp: fetal plasma / maternal plasma, oral, Gestation Day 19, calculated from individual ratios, read-out: Fetal:Maternal Plasma Ratio; for Kp / Doe plasma concentration / Fetus concentration (pooled fetal blood samples): rabbits; for AUC / Cmax: po, pregnant rabbits; for Doe plasma concentration / Fetus concentration (pooled fetal blood samples): 2 hours after dosing on Gestation Day 19
# Excerpt: (§2) Additionally, four groups of five animals/group served as toxicokinetic (TK) animals and received the vehicle or test article in the same manner and dose levels as the main study groups. All time-mated females arrived at the laboratory on GD 0, the day evidence of mating was observed.
# healthy volunteers = assay: Safety and tolerability of ascending multiple oral doses in healthy volunteers; type: in vivo, human
# Protocol: Study Design: This study was a randomized, double-blind, placebo-controlled, ascending-dose trial to evaluate the safety, tolerability and pharmacokinetics (PK) of multiple oral doses of Compound I. Subjects were enrolled into 1 of the 4 cohorts, 10 subjects per cohort (active:placebo=8:2). Subjects received a multiple oral dose of 25, 50, 100, or 200 mg unformulated Compound I in a capsule, or matching placebo, once daily (QD) for 14 days.
# Assessments: Safety and tolerability were assessed by adverse event (AE) monitoring, clinical laboratory testing, vital sign measurement, 12-lead ECG measurement, concomitant medication assessment, and physical examination. Blood and urine samples were collected to assess the PK profile of Compound I and the S-cis isomer of Compound I. Blood samples (˜5 mL) for plasma PK analysis were collected in K2-EDTA vacutainer tubes to yield approximately 2 mL of plasma at each of the following time points: (i) Day 1: before dosing, and 0.25, 0.5, 1, 1.5, 2, 2.5, 3, 4, 6, 8, 10, 12, 16, and 24 hours after dosing; (ii) Day 3 to Day 9: before dosing; (iii) Day 10: before dosing, and 0.25, 0.5, 1, 1.5, 2, 2.5, 3, 4, 6, 8, 10, 12, and 16 hours after dosing; (iv) Day 11 to Day 13: before dosing; (v) Day 14: before dosing, and 0.25, 0.5, 1, 1.5, 2, 2.5, 3, 4, 6, 8, 10, 12, 16, 24, 48, 72, 96, 120, 144, and 168 hours after dosing. Urine samples for the PK analysis were collected as a single block at: (i) Day 1: before dosing (spot collection), 0 to 8, 8 to 16, and 16 to 24 hours after dosing; and (ii) Day 14: 0 to 8, 8 to 16, and 16 to 24 hours after dosing. Both plasma and urine concentrations of Compound I and its S-cis isomer were measured using validated liquid chromatography-tandem mass spectrometry (LC/MS/MS).
# Data Analysis: Safety data were summarized using descriptive statistics by treatment. PK parameters for Compound I and its S-cis isomer were calculated using non-compartmental analysis using WinNonlin (Version 5.0.1 or greater; Pharsight Corporation, Mountain View, Calif.). Dose proportionality and dose independence were evaluated by visual inspection. Intra-subject variability was assessed using an ANOVA model using data from Days 10 and 14.
# [4] = test system: time-mated female New Zealand White Hra:(NZW)SPF rabbits; settings: rabbit, in vivo, 10 mg/kg/day
# Excerpt: as §2
# [5] = plasma, 10 mg/kg/day, 10 mg/kg/d oral, Gestation Day 7
# [6] = plasma, 10 mg/kg/day, 10 mg/kg/d oral, Gestation Day 18
# [7] = plasma, 20 mg/kg/day, 20 mg/kg/d oral, Gestation Day 7
# [8] = plasma, 40 mg/kg/day, 40 mg/kg/d oral, Gestation Day 7
# [9] = plasma, 40 mg/kg/day, 40 mg/kg/d oral, Gestation Day 18
compound,measurement,setting,value
"O[C@H]1CC[C@H](Nc2ncc3nc(Nc4c(F)cc(F)cc4F)n([C@H]4CCOC4)c3n2)CC1 [Compound I, 4-((9-((3S)-tetrahydro-3-furanyl)-8-((2,4,6-trifluorophenyl)amino)-9H-purin-2-yl)amino)-trans-cyclohexanol]",NOAEL,[1],25 mg/kg/day
same,doses at which developmental effects were observed,"[2]; female, CD [Crl:CD(SD)], rat, in vivo",> 25 mg/kg/day
same,teratogenicity,"[2]; rat, in vivo",teratogenic
same,maternal toxicity,"[2]; rat, in vivo, 25 mg/kg/day",No maternal toxicity
same,"incidence of fetal malformations involving heart and aortic vessels, ribs, and/or vertebrae","[2]; rat, in vivo, 100 mg/kg/day",slight increase
same,post implantation loss index,"[2]; rat, in vivo, 100 mg/kg/day",increased
same,fetal weights lower than controls,"[2]; rat, in vivo, po, 25 mg/kg/day",about 6%
same,fetal body weights lower than controls,"[2]; rat, in vivo, po, 50 mg/kg/day",about 11%
same,fetal body weights lower than controls,"[2]; rat, in vivo, po, 100 mg/kg/day",~27%
same,NOEL for developmental toxicity,[2]; rats,25 mg/kg/day
same,"lowest observed effect level (LOEL), developmental effects",[2]; rats,25 mg/kg/day
same,Kp,"[3]; 10 mg/kg/day, 10 mg/kg/d",0.1
same,Kp,"[3]; 20 mg/kg/day, 20 mg/kg/d",0.09
same,Kp,"[3]; 40 mg/kg/day, 40 mg/kg/d",0.24
same,AUC,"[3]; in vivo, 20 mg/kg/day, 20 mg/kg/d oral, Gestation Day 18",85000 ng·h/mL
same,AUC,[3]; [5],35200 ng·h/mL
same,Cmax,[3]; [5],6520 ng/mL
same,AUC,[3]; [6],39300 ng·h/mL
same,Cmax,[3]; [6],6730 ng/mL
same,AUC,[3]; [7],79100 ng·h/mL
same,Cmax,[3]; [7],12500 ng/mL
same,Cmax,"[3]; plasma, 20 mg/kg/day, 20 mg/kg/d oral, Gestation Day 18",13200 ng/mL
same,AUC,[3]; [8],152000 ng·h/mL
same,Cmax,[3]; [8],21200 ng/mL
same,AUC,[3]; [9],152000 ng·h/mL
same,Cmax,[3]; [9],21500 ng/mL
same,maternal AUC as fold of human AUC,[3]; rabbits at NOAEL 20 mg/kg/day vs human 100 mg BID,~3.4 fold
same,maternal AUC as fold of human AUC,[3]; rabbits at NOAEL 20 mg/kg/day vs human 200 mg BID,~1.6 fold
same,Doe plasma concentration,[3]; 10 mg/kg/d,4916 ng/mL
same,Fetus concentration (pooled fetal blood samples),[3]; 10 mg/kg/d,465.7 ng/mL
same,Doe plasma concentration,[3]; 20 mg/kg/d,9217 ng/mL
same,Fetus concentration (pooled fetal blood samples),[3]; 20 mg/kg/d,870.7 ng/mL
same,Doe plasma concentration,[3]; 40 mg/kg/d,15594 ng/mL
same,Fetus concentration (pooled fetal blood samples),[3]; 40 mg/kg/d,3426 ng/mL
same,"Dermatitis contact, number of subjects reporting TEAE",healthy volunteers; 25 mg QD for 14 days (N = 8),0 n (%)
same,"Dizziness, number of subjects reporting TEAE",healthy volunteers; 25 mg QD for 14 days (N = 8),0 n (%)
same,"Flatulence, number of subjects reporting TEAE",healthy volunteers; 25 mg QD for 14 days (N = 8),0 n (%)
same,"Headache, E = number of TEAE",healthy volunteers; 25 mg QD for 14 days (N = 8),1
same,"Headache, number of subjects reporting TEAE",healthy volunteers; 25 mg QD for 14 days (N = 8),1 (12.5) n (%)
same,"Nasal congestion, E = number of TEAE",healthy volunteers; 25 mg QD for 14 days (N = 8),1
same,"Nasal congestion, number of subjects reporting TEAE",healthy volunteers; 25 mg QD for 14 days (N = 8),1 (12.5) n (%)
same,"Nausea, E = number of TEAE",healthy volunteers; 25 mg QD for 14 days (N = 8),1
same,"Nausea, number of subjects reporting TEAE",healthy volunteers; 25 mg QD for 14 days (N = 8),1 (12.5) n (%)
same,"Pharyngolaryngeal pain, number of subjects reporting TEAE",healthy volunteers; 25 mg QD for 14 days (N = 8),0 n (%)
same,"Rhinitis, number of subjects reporting TEAE",healthy volunteers; 25 mg QD for 14 days (N = 8),0 n (%)
same,"Total TEAEs, E = number of TEAE",healthy volunteers; 25 mg QD for 14 days (N = 8),6
same,"Total TEAEs, number of subjects reporting TEAE",healthy volunteers; 25 mg QD for 14 days (N = 8),3 (37.5) n (%)
same,"Dermatitis contact, E = number of TEAE",healthy volunteers; 50 mg QD for 14 days (N = 8),1
same,"Dermatitis contact, number of subjects reporting TEAE",healthy volunteers; 50 mg QD for 14 days (N = 8),1 (12.5) n (%)
same,"Dizziness, number of subjects reporting TEAE",healthy volunteers; 50 mg QD for 14 days (N = 8),0 n (%)
same,"Flatulence, E = number of TEAE",healthy volunteers; 50 mg QD for 14 days (N = 8),4
same,"Flatulence, number of subjects reporting TEAE",healthy volunteers; 50 mg QD for 14 days (N = 8),2 (25.0) n (%)
same,"Headache, E = number of TEAE",healthy volunteers; 50 mg QD for 14 days (N = 8),2
same,"Headache, number of subjects reporting TEAE",healthy volunteers; 50 mg QD for 14 days (N = 8),2 (25.0) n (%)
same,"Nasal congestion, number of subjects reporting TEAE",healthy volunteers; 50 mg QD for 14 days (N = 8),0 n (%)
same,"Nausea, number of subjects reporting TEAE",healthy volunteers; 50 mg QD for 14 days (N = 8),0 n (%)
same,"Pharyngolaryngeal pain, number of subjects reporting TEAE",healthy volunteers; 50 mg QD for 14 days (N = 8),0 n (%)
same,"Rhinitis, E = number of TEAE",healthy volunteers; 50 mg QD for 14 days (N = 8),1
same,"Rhinitis, number of subjects reporting TEAE",healthy volunteers; 50 mg QD for 14 days (N = 8),1 (12.5) n (%)
same,"Total TEAEs, E = number of TEAE",healthy volunteers; 50 mg QD for 14 days (N = 8),20
same,"Total TEAEs, number of subjects reporting TEAE",healthy volunteers; 50 mg QD for 14 days (N = 8),6 (75.0) n (%)
same,"Dermatitis contact, number of subjects reporting TEAE",healthy volunteers; 100 mg QD for 14 days (N = 8),0 n (%)
same,"Dizziness, E = number of TEAE",healthy volunteers; 100 mg QD for 14 days (N = 8),2
same,"Dizziness, number of subjects reporting TEAE",healthy volunteers; 100 mg QD for 14 days (N = 8),2 (25.0) n (%)
same,"Flatulence, number of subjects reporting TEAE",healthy volunteers; 100 mg QD for 14 days (N = 8),0 n (%)
same,"Headache, E = number of TEAE",healthy volunteers; 100 mg QD for 14 days (N = 8),3
same,"Headache, number of subjects reporting TEAE",healthy volunteers; 100 mg QD for 14 days (N = 8),3 (37.5) n (%)
same,"Nasal congestion, number of subjects reporting TEAE",healthy volunteers; 100 mg QD for 14 days (N = 8),0 n (%)
same,"Nausea, number of subjects reporting TEAE",healthy volunteers; 100 mg QD for 14 days (N = 8),0 n (%)
same,"Pharyngolaryngeal pain, E = number of TEAE",healthy volunteers; 100 mg QD for 14 days (N = 8),1
same,"Pharyngolaryngeal pain, number of subjects reporting TEAE",healthy volunteers; 100 mg QD for 14 days (N = 8),1 (12.5) n (%)
same,"Rhinitis, E = number of TEAE",healthy volunteers; 100 mg QD for 14 days (N = 8),1
same,"Rhinitis, number of subjects reporting TEAE",healthy volunteers; 100 mg QD for 14 days (N = 8),1 (12.5) n (%)
same,"Total TEAEs, E = number of TEAE",healthy volunteers; 100 mg QD for 14 days (N = 8),10
same,"Total TEAEs, number of subjects reporting TEAE",healthy volunteers; 100 mg QD for 14 days (N = 8),4 (50.0) n (%)
same,"Dermatitis contact, E = number of TEAE",healthy volunteers; 200 mg QD for 14 days (N = 8),1
same,"Dermatitis contact, number of subjects reporting TEAE",healthy volunteers; 200 mg QD for 14 days (N = 8),1 (12.5) n (%)
same,"Dizziness, E = number of TEAE",healthy volunteers; 200 mg QD for 14 days (N = 8),1
same,"Dizziness, number of subjects reporting TEAE",healthy volunteers; 200 mg QD for 14 days (N = 8),1 (12.5) n (%)
same,"Flatulence, number of subjects reporting TEAE",healthy volunteers; 200 mg QD for 14 days (N = 8),0 n (%)
same,"Headache, number of subjects reporting TEAE",healthy volunteers; 200 mg QD for 14 days (N = 8),0 n (%)
same,"Nasal congestion, E = number of TEAE",healthy volunteers; 200 mg QD for 14 days (N = 8),1
same,"Nasal congestion, number of subjects reporting TEAE",healthy volunteers; 200 mg QD for 14 days (N = 8),1 (12.5) n (%)
same,"Nausea, E = number of TEAE",healthy volunteers; 200 mg QD for 14 days (N = 8),3
same,"Nausea, number of subjects reporting TEAE",healthy volunteers; 200 mg QD for 14 days (N = 8),1 (12.5) n (%)
same,"Pharyngolaryngeal pain, E = number of TEAE",healthy volunteers; 200 mg QD for 14 days (N = 8),1
same,"Pharyngolaryngeal pain, number of subjects reporting TEAE",healthy volunteers; 200 mg QD for 14 days (N = 8),1 (12.5) n (%)
same,"Rhinitis, number of subjects reporting TEAE",healthy volunteers; 200 mg QD for 14 days (N = 8),0 n (%)
same,"Total TEAEs, E = number of TEAE",healthy volunteers; 200 mg QD for 14 days (N = 8),15
same,"Total TEAEs, number of subjects reporting TEAE",healthy volunteers; 200 mg QD for 14 days (N = 8),3 (37.5) n (%)
same,serious or severe TEAE,healthy volunteers; 25-200 mg QD for 14 days,no serious or severe TEAE was reported
same,subjects reporting treatment-emergent adverse events,"healthy volunteers; active, 25-200 mg QD for 14 days",16/32
same,tolerability,healthy volunteers; doses up to 200 mg QD for 14 days,well tolerated
same,maternal or developmental toxicity,[4],No maternal or developmental toxicity
